Each structure is given as a SMILES string.

Consider two compounds from patent publication US9408854B2, “Methods and systems for pharmacogenomic treatment of cardiovascular conditions” (ROSTAQUO S.P.A., priority 2009, dated 2016).

This experiment has as its system hypertensive patients. Nature of the experiment: Two separate studies: blood pressure change with HCTZ, Losartan and rostafuroxin in patients carrying profile 4, 8 or 9. Type of experiment: in vivo, human. The note with it: preliminary data; for modification in blood pressure: individuals carrying profile 4. An excerpt: In particular, individuals carrying profile 4 show a modification in blood pressure of: −12.3±1.5 mmHg with HCTZ; −11.3±1.7 with Losartan and −18.74±1.8 mmHg with rostafuroxin; individuals with profile 8 show the a decrease in blood pressure of −11.3±1.2 with HCTZ; −11.6±1.3 with Losartan and −15.2±1.5 mmHg with rostafuroxin; individuals with profile 9 show the a decrease in blood pressure of −11.9±1.2 with HCTZ; −11.4±1.4 with Losartan and −15.2±1.5 mmHg with rostafuroxin.

Turning to `NS(=O)(=O)c1cc2c(cc1Cl)NCNS2(=O)=O` [HCTZ, 6-chloro-1,1-dioxo-3,4-dihydro-2H-1,2,4-benzothiadiazine-7-sulfonamide], the “modification in blood pressure” value is −12.3±1.5 mmHg. Also, the “decrease in blood pressure” value (individuals with profile 8) was −11.3±1.2 mmHg. Further, for the setting “individuals with profile 9”, the “decrease in blood pressure” value was −11.9±1.2 mmHg.
The corresponding values for `CCCCc1nc(Cl)c(CO)n1Cc1ccc(-c2ccccc2-c2nnn[nH]2)cc1` [Losartan, (2-butyl-4-chloro-1-{[2′-(1H-tetrazol-5-yl)biphenyl-4-yl]methyl}-1H-imidazol-5-yl)methanol] are −11.3±1.7 mmHg, −11.6±1.3 mmHg and −11.4±1.4 mmHg.
